# Results: ChEMBL document CHEMBL1201862, “PubChem BioAssay data set” (2004)
# The source made the active and inactive calls.
# Assays:
# [1] = molecular target: T1, Replicative DNA helicase DnaB (Mycobacterium tuberculosis, UniProt P9WMR3); experiment: DnaB intein splicing inhibitors, dose response, biochemical, cell-free fluorescence (AID 449749); type: functional
# T1 sequence (P9WMR3 whole entry): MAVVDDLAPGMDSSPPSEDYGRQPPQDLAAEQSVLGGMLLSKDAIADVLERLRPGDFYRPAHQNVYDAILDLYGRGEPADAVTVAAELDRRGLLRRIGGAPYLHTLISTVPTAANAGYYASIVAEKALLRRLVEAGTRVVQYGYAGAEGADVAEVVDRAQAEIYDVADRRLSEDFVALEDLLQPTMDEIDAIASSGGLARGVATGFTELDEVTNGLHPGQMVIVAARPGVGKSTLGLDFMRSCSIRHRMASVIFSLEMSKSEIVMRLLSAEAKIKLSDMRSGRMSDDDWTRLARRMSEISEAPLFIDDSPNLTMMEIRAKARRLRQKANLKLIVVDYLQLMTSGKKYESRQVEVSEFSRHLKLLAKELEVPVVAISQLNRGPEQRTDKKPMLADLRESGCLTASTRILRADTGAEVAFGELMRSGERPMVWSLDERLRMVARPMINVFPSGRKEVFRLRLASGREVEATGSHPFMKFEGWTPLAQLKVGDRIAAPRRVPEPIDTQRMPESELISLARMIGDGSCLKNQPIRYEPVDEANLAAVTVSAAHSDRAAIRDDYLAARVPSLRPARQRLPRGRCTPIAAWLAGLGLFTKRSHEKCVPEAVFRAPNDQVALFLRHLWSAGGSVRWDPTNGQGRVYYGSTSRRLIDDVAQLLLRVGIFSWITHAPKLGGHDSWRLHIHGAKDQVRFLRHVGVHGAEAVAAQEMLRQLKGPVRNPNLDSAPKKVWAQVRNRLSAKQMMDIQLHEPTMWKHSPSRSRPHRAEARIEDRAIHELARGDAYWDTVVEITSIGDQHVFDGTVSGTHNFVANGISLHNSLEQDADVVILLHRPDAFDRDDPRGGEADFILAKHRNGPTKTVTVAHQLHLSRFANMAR
# [2] = molecular target: T2, Protein RecA (Mycobacterium tuberculosis, UniProt P9WHJ3); experiment: Fluorescence Cell-Free Homogeneous Dose Retest to Identify Inhibitors of RecA-Intein Splicing Activity. [Related pubchem assays (depositor defined):AID2097, AID2223, AID489010, AID492950]; type: functional
# T2 sequence (P9WHJ3 whole entry): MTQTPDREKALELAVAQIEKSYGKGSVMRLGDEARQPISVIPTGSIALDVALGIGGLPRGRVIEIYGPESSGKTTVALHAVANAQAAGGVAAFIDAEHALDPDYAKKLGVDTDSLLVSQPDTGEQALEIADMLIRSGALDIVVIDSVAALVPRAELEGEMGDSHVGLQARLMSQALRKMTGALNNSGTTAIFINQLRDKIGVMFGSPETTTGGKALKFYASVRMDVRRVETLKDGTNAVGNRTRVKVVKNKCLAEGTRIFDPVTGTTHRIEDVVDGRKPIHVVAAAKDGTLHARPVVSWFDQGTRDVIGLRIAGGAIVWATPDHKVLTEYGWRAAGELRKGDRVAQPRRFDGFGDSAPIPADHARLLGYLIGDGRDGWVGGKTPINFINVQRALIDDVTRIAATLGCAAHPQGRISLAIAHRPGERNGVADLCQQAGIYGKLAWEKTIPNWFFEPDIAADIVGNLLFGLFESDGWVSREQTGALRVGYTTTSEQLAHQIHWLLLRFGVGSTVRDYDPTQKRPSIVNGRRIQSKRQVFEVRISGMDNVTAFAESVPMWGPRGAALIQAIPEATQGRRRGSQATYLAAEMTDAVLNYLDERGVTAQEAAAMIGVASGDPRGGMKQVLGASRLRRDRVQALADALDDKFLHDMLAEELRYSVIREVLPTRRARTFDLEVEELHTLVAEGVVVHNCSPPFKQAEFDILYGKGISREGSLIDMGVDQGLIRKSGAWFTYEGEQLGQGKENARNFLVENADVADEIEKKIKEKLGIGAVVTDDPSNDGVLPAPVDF
# [3] = molecular target: Cytochrome P450 2D6 (Homo sapiens, UniProt P10635);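 also: CYP2D6 member of a cytochrome P450 panel assay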
# [4] = molecular target: FAD-linked sulfhydryl oxidase ALR (Homo sapiens, UniProt P55789); experiment: ALR-catalysed DTT oxidation blockers – biochemical, H2O2 detection, luminescence, cherry-pick, dose response (AID 493248)
# [5] = test system: Streptococcus sp. 'group A'; experiment: Streptococcus pyogenes SK(-)GAS viability under kanamycin – luminescence, BacTiterGlo, confirmation, counter-screen for streptokinase expression inhibitor project, dose response (AID 1900); type: functional, organism-based
# [6] = molecular target: T3, Streptokinase A (Streptococcus pyogenes serotype M1, UniProt P10520); experiment: viability-normalized secreted streptokinase activity reduction – plasminogen activation absorbance, OD405, dose response (AID 1914); type: functional, Streptococcus pyogenes M1 GAS;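 also: secreted streptokinase activity via plasminogen activation per viability signal from cell pellet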
# T3 sequence (P10520 whole entry): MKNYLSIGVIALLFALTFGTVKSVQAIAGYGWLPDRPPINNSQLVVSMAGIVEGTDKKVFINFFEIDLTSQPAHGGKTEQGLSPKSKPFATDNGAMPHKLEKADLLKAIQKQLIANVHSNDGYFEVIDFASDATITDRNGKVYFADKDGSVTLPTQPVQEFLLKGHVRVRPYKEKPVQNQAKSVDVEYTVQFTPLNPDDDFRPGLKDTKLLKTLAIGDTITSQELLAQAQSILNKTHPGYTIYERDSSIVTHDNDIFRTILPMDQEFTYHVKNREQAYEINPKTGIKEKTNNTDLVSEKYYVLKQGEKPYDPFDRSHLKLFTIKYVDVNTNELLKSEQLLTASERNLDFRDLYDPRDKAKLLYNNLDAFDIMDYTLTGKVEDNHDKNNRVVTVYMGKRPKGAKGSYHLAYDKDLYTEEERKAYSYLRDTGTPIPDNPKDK
# [7] = test system: Streptococcus; experiment: GAS UMAA2166 growth inhibition – luminescence, BacTiterGlo, counter-screen for streptokinase expression inhibitor project, dose response (AID 1915); type: functional, organism-based;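 also: potency for reduction of bacterial viability or growth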
# [8] = molecular target: Cytochrome P450 2C9 (Homo sapiens, UniProt P11712)
# [9] = Luminescence Cell-Based Dose Retest to Confirm Inhibitors of Cancer Stem Cells. [Related pubchem assays (depositor defined):AID2717, AID2721]; type: functional; settings: Homo sapiens
# [10] = test system: INS1; experiment: INS-1E survival protection against cytokine death – cell-based, luminescence, retest, dose response (AID 449756); type: functional; settings: Rattus norvegicus;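 also: cell death triggered by IL-1 beta plus TNF-alpha plus IFN-gamma mixture; protective hits raise ATP signal compared with cytokine alone wells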
# [11] = molecular target: T4, Cytochrome P450 1A2 (Homo sapiens, UniProt P05177);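 also: PubChem cytochrome P450 panel assay, CYP1A2 panel member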
# T4 sequence (P05177 whole entry): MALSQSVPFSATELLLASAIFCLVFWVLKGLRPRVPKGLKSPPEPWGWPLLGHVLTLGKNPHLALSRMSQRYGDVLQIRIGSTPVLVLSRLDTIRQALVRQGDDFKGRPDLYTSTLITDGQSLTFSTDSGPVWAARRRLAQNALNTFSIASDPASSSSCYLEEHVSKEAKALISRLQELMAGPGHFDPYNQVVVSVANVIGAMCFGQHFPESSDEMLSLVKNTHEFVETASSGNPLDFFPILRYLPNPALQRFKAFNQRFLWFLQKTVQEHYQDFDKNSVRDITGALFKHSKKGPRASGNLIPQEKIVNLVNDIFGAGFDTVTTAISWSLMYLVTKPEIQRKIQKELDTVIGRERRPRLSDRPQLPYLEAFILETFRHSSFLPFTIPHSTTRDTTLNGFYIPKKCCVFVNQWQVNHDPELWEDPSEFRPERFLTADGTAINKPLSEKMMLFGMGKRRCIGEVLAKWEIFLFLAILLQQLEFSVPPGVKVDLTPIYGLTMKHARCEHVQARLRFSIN
# [12] = molecular target: Cytochrome P450 3A4 (Homo sapiens, UniProt P08684);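 also: CYP3A4 tested as one member of a cytochrome P450 panel screen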
# [13] = molecular target: T5, RNA-binding protein pos-1 (Caenorhabditis elegans, UniProt G5EF15); experiment: disruptors of C. elegans POS-1 RNA interaction – biochemical, fluorescence polarization, dose response (AID 1964);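 also: purified POS-1 fused to maltose binding protein made in E. coli; potency of compounds blocking POS-1 binding to fluorescent RNA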
# T5 sequence (G5EF15 whole entry): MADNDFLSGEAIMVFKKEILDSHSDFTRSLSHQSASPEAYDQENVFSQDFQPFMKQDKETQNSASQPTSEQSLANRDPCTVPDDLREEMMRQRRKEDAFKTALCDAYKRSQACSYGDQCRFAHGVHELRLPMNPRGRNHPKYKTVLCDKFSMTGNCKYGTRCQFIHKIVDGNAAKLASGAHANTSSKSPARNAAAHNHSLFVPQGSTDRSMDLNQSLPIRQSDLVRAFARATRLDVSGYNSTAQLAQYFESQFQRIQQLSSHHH
# [14] = molecular target: Cytochrome P450 2C19 (Homo sapiens, UniProt P33261); experiment: Cytochrome panel assay with activity outcomes. Panel member name: p450-cyp2c19 Compounds with AC50 equal or less than 10 uM are considered active; type: functional; settings: read-out: AC50
# Sequence of Cytochrome P450 2C19 (P33261 whole entry): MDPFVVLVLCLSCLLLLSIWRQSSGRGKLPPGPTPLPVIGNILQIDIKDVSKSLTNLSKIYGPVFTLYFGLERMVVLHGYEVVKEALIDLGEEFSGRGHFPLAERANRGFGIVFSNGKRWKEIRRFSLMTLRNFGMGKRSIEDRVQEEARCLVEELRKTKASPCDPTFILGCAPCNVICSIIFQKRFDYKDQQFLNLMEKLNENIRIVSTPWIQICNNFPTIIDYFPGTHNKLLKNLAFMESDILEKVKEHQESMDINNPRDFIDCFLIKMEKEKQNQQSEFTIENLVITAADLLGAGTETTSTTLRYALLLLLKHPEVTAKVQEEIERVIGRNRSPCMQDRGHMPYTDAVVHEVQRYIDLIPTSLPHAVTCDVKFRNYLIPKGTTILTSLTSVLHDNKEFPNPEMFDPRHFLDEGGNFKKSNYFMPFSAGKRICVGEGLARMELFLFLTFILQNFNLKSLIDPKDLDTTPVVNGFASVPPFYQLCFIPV
# Sequence of Cytochrome P450 2D6 (P10635 whole entry): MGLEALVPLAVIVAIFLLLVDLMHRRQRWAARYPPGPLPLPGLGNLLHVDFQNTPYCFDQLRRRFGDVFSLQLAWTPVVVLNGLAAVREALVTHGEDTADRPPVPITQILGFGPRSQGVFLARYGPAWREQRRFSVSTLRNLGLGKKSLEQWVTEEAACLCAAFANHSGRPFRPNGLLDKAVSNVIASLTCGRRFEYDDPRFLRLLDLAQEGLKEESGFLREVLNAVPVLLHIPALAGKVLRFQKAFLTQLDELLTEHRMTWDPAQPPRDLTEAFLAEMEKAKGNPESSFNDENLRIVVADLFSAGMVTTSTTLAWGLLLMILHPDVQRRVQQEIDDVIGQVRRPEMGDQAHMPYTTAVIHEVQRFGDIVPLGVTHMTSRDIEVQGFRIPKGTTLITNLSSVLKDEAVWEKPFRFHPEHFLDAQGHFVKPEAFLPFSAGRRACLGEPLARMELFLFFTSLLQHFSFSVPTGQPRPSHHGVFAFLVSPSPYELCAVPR
# Sequence of FAD-linked sulfhydryl oxidase ALR (P55789 whole entry): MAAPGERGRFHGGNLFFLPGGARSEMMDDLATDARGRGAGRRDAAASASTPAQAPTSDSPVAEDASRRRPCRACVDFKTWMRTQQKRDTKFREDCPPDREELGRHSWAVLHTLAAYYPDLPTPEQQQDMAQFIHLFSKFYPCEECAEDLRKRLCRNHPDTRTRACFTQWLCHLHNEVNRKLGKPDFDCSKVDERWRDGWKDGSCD
# Sequence of Cytochrome P450 3A4 (P08684 whole entry, the tested form may be a part): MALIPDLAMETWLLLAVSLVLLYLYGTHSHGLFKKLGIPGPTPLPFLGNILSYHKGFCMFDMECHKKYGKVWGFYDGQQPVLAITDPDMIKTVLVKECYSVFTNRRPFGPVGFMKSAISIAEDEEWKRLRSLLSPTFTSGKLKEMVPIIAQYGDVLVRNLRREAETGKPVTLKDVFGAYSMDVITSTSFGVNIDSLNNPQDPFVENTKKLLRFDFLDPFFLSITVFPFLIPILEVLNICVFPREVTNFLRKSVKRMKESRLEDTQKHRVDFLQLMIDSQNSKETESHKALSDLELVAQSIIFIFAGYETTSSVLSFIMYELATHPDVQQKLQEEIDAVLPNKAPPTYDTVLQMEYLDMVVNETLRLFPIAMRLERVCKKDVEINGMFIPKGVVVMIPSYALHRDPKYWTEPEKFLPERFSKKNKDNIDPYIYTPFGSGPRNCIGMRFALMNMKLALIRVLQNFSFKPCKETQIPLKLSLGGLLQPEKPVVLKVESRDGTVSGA
# Sequence of Cytochrome P450 2C9 (P11712 whole entry): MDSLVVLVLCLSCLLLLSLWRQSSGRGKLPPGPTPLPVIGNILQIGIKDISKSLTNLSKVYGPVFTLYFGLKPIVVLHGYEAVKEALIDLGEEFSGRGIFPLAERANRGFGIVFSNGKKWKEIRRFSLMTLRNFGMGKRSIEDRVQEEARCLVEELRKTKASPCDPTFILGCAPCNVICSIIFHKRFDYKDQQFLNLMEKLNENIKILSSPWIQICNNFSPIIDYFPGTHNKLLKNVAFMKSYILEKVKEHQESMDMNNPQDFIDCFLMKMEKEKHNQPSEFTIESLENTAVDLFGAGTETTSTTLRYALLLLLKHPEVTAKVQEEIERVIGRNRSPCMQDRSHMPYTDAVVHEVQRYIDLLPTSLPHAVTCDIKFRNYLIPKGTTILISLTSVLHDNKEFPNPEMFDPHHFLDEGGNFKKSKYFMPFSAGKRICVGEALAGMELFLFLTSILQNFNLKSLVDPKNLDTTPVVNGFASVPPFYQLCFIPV
smiles,measurement,setting,value
CCOC(=O)Cc1c(O)oc2nnc(C)c-2c1C,AC50,[1],> 380 µM (inactive)
same,EC50,[2],19.1 µM (active)
CC(CO)Nc1nc(SCc2ccccc2)nc2sc3c(c12)CCC3 (configuration not stated),AC50,[3],12.6 µM (inconclusive)
COc1ccc(Cn2c(S)nnc2-c2ccc(OC)cc2)cc1,AC50,[4],0.009 µM (active)
Cn1sc(NC(=O)c2ccc(Cl)cc2)nc1=O,AC50,[4],1.88 µM (active)
COc1ccc(C2CC(c3cccs3)=NN2C(=O)CSC2=NCCS2)cc1 (configuration not stated),EC50,[5],21.5 µM (active)
same,EC50,[6],> 150 µM (not active)
same,EC50,[7],> 150 µM (not active)
same,AC50,[1],10.9 µM (active)
same,EC50,[2],5.31 µM (active)
c1cc2cc(c1)C[n+]1ccc(c3ccccc31)NCc1ccc(cc1)CNc1cc[n+](c3ccccc13)C2,AC50,[3],39.8 µM (inconclusive)
COc1ccc(C(=O)NCC(=O)OCc2cccc(Br)c2)cc1,AC50,[3],15.8 µM (inconclusive)
COc1ccc(NC2CCCN(C(=O)CCc3ccncc3)C2)cc1OC (configuration not stated),AC50,[4],4.75 µM (active)
O=C(OCc1nnc(-c2ccccc2)o1)c1ccc2c(c1)OCCO2,AC50,[3],28.2 µM (inconclusive)
Cc1n[nH]c2c1C(c1c[nH]nc1-c1ccc(F)cc1)C(C#N)=C(N)O2 (configuration not stated),AC50,[1],12.1 µM (active)
same,EC50,[2],3.88 µM (active)
CN(C)S(=O)(=O)c1cccc(-c2cn3cccnc3n2)c1,AC50,[4],0.278 µM (active)
O=C(CCN1C(=O)/C(=C/c2cccs2)SC1=S)Nc1ccc(C(=O)O)c(O)c1,AC50,[1],5.23 µM (active)
same,EC50,[2],13.3 µM (active)
CCCCCOP(=O)(OCCCCC)C1(NS(=O)(=O)c2ccccc2)C=CC(=O)c2ccccc21 (configuration not stated),AC50,[1],2.96 µM (active)
same,EC50,[2],2.69 µM (active)
CC(C)c1cccc2nc3c(c([Si](C)(C)C)c12)Cn1c-3cccc1=O,AC50,[3],39.8 µM (inconclusive)
same,AC50,[8],39.8 µM (inconclusive)
COc1ccc2[nH]c(N3CCCC3)nc2c1,AC50,[4],6.11 µM (active)
Cc1ccccc1CNc1ccc(C(CC(N)=O)NC(=O)c2ccc(Br)cc2)cc1[N+](=O)[O-] (configuration not stated),AC50,[9],0.986 µM (active)
same,AC50,[10],14.9 µM (active)
O=C(CN1CCN(S(=O)(=O)c2ccc(Cl)cc2)CC1)Nc1ccc2c(c1)OCO2,AC50,[1],55.9 µM (active)
same,EC50,[2],> 380 µM (inactive)
same,AC50,[11],15.8 µM (inconclusive)
Cc1ccc(C2C(C#N)=C(N)Oc3[nH]nc(-c4cccs4)c32)s1 (configuration not stated),AC50,[1],1.54 µM (active)
same,EC50,[2],1.82 µM (active)
Oc1ccc(Br)cc1-c1cc(-c2ccc(Cl)cc2)[nH]n1,AC50,[10],4.87 µM (active)
CCNc1ncc2nc(-c3cccs3)c(=O)n(C[C@H]3CCCO3)c2n1,AC50,[12],7.94 µM (inconclusive)
same,AC50,[3],0.2 µM (inconclusive)
CCNc1ccc(S(=O)(=O)N(C)C)cc1NCC(=O)Nc1ccccc1Cl,AC50,[4],5.58 µM (active)
N#Cc1cccc(NC(=O)N2CCC3(CC2)CCN(C(=O)c2csnn2)CC3)c1,AC50,[12],20 µM (inconclusive)
same,AC50,[3],15.8 µM (inconclusive)
O=c1[nH]cc(O)c(=O)[nH]1,AC50,[1],7.97 µM (active)
same,EC50,[2],9.27 µM (active)
O=C1NC(=O)N(c2cccc(F)c2)C(=O)/C1=C/c1c[nH]c2ccccc12,EC50,[13],> 300 µM (not active)
COc1ccc(C(C(=O)Nc2ccc(F)cc2)N(C(=O)Cn2nnc3ccccc32)C2CC2)cc1 (configuration not stated),AC50,[14],10 µM (inconclusive)
same,AC50,[3],28.2 µM (inconclusive)
Cc1cc(C)n(-c2ccc([N+](=O)[O-])cc2)n1,AC50,[1],> 380 µM (inactive)
same,EC50,[2],> 380 µM (inactive)
COc1ccccc1CNc1ncnc2ccc(-c3c(C)noc3C)cc12,AC50,[14],31.6 µM (inconclusive)
same,AC50,[3],39.8 µM (inconclusive)
same,AC50,[8],0.794 µM (inconclusive)
COC(=O)c1cc(NS(=O)(=O)c2ccc(N3CCCCCC3)c([N+](=O)[O-])c2)cc(C(=O)OC)c1,AC50,[11],14.1 µM (inconclusive)
same,AC50,[3],12.6 µM (inconclusive)
CN(C)S(=O)(=O)c1ccc(C(=O)N2CCN=C2SCc2cccnc2)cc1,AC50,[4],0.017 µM (active)
Cc1nc2ccccc2n1CC(=O)N/N=C\C=C\c1ccccc1,AC50,[3],35.5 µM (inconclusive)
Cc1nc(C#N)c(N/N=C/c2cccc(Cl)c2)o1,AC50,[4],1.66 µM (active)
